Tested on: M. tuberculosis LP-FQ-RM9
Format: cell-based, Mycobacterium tuberculosis
Settings: for IC50: read-out: Antituberculosis activity M. tuberculosis LP-FQ-RM9 IC50; for IC90: read-out: Antituberculosis activity M. tuberculosis LP-FQ-RM9 IC90

| SMILES | IC50 [nM] | IC90 [nM] | activity against the fluoroquinolone-resistant strain (result in words) |
| --- | --- | --- | --- |
| COc1ccc2nccc(CCN3CCC(NCc4ccc(Br)c(F)c4)CC3)c2n1 [Compound 1] | 380 ± 50 | 520 ± 145 |  |
| COc1ccc2nccc(CCN3CCC(NCc4ccc(I)c(F)c4)CC3)c2n1 [Compound 2] | 420 ± 80 | 580 ± 180 |  |
| COc1ccc2nccc(CCN3CCC(NCc4cc(F)c(Cl)c(F)c4)CC3)c2n1 [Compound 3] | 290 | 430 |  |
| COc1ccc2nccc(CCN3CCC(NCc4cc(F)c(Br)c(F)c4)CC3)c2n1 [Compound 4] |  | 260 |  |
| COc1ccc2nccc(C(O)CC3CCC(NCc4cc(F)c(Br)c(F)c4)CC3)c2n1 (centres unmarked) [Compound 5] |  | 1000 ± 75 |  |
| C[C@H]1COc2c(N3CCN(C)CC3)c(F)cc3c(=O)c(C(=O)O)cn1c23 [Levofloxacin, reference compound] | > 10000 | > 10000 | no activity was observed |

From publication PMC11647683, “Structural Aspects of Mycobacterium tuberculosis DNA Gyrase Targeted by Novel Bacterial Topoisomerase Inhibitors” (ACS Medicinal Chemistry Letters, 2024)
